Values of other authors, collected in patent publication US20100173015A1, “COMPOSITIONS AND METHODS FOR THE ABSORPTION, CHELATION, AND ELIMINATION OF TRACE ELEMENTS” (priority 2009, published 2010).

Assays:
CYP2E1 = conditions: microarray, in the presence of taxifolin
[1] = tested on: human lung embryonic fibroblasts (TIG-1); conditions: TIG-1 cells
[2] = tested on: umbilical vein endothelial (HUVE) cells
NQO1 = conditions: microarray, in the presence of taxifolin
GSTM1 = conditions: microarray, in the presence of taxifolin

O=C1c2c(O)cc(O)cc2O[C@H](c2ccc(O)c(O)c2)[C@H]1O [Dihydroquercetin]
expression of phase I detoxification enzyme CYP2E1 (CYP2E1): down regulated
50% lethal concentration [1]: > 300 µmol
50% lethal concentration [2]: > 200 µmol
expression of phase II detoxification enzyme NQO1 (NQO1): upregulated
expression of phase II detoxification enzyme GSTM1 (GSTM1): upregulated
